Measured values reported in US7687508B2, “Cyclic derivatives as modulators of chemokine receptor activity” (Bristol-Myers Squibb Company, priority 2006, dated 2010).

Legend:
human CCR2 [1] = target: T1, human CCR2 (Homo sapiens, UniProt P41597); assay: THP-1 binding (CCR2, 125I-human MCP-1 tracer); parameters: THP-1 human monocytic leukemic cell line, which expresses endogenous CCR2; endogenous in cells; host or cells: THP-1 human monocytic leukemia cells; conditions: metabolite examples; THP-1 cells, 125I-MCP-1
T1 sequence (P41597 1-360 isoform P41597-2): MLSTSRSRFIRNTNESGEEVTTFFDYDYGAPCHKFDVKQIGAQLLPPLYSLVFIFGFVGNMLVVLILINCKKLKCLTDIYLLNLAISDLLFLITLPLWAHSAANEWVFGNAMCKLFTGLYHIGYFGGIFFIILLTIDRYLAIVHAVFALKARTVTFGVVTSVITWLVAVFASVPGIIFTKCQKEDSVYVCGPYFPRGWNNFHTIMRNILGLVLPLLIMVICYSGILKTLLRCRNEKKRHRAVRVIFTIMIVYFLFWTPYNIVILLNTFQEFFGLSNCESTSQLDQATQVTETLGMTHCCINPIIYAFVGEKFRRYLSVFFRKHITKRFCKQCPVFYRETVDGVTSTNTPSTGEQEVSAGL
Experimental: The human CCR2 binding assay was also established with the THP-1 human monocytic leukemic cell line, which expresses endogenous CCR2, using 125I-human MCP-1 as the tracer ligand. Radioligand competition binding assays were used for assessment of binding affinity of test compounds to the CCR2 receptor. For radioligand competition studies, 100 μl containing 2.5×10^5 THP-1 cells/well (in assay buffer containing 50 mM HEPES, pH7.4, 5 mM MgCl2, 1 mM CaCl2 and 0.5% BSA) were added to 96-well assay plates containing test compound in 3-fold serial dilution, with final concentrations ranging from […]. Subsequently, 50 μl ^125I-MCP-1 radioligand at a final concentration of 0.2 nM in assay buffer were added to the reaction. After a 90 minute incubation period at room temperature, the binding reaction was terminated by harvesting on GF/B filter plates (PerkinElmer Cat. No. 6005177) followed by washing with ice-cold wash buffer (50 mM HEPES, pH 7.4, 0.1% BSA, 0.5 M NaCl) to remove unbound ligand. After washing, the plate was dried for 45 minutes at 60° C. followed by addition of 40 μl MicroScint 20 scintillation fluid, sealed and analyzed by the Packard TopCount reader. […] The competition data was plotted as a percentage inhibition of radioligand specific bound in the absence of test compound (percent of total signal). After correcting for non-specific binding, IC50 values were determined.

human CCR2 [2] = target: T1, human CCR2; assay: Human peripheral blood mononuclear cell binding (CCR2 binding), 125I-human MCP-1 tracer; parameters: hPBMCs were isolated from human leukopak (Biological Specialty Inc.); endogenous in cells; host or cells: human peripheral blood mononuclear cells from leukopak (Biological Specialty Inc.); conditions: hPBMCs, 125I-MCP-1
Experimental: See also: Yoshimura et al., J. Immunol. 1990, 145, 292. The human CCR2 binding assay was established with human peripheral blood mononuclear cells (hPBMCs) using ^125I-human MCP-1 as the tracer ligand. hPBMCs were isolated from human leukopak (Biological Specialty Inc.) using a standard protocol with Ficoll-Hypaque (Mediatech Cellgro). Isolated hPBMCs were washed and diluted to 1×10^7/ml in binding buffer (RPMI-1640, 0.1% BSA, 20 mM Hepes, pH 7.4). ^125I-MCP-1 (NEN/Perk Elmer) was diluted to 0.45 nM in binding buffer. The compound was diluted in binding buffer at 3-fold the final concentrations used in the binding assay. The binding assay was performed using a 96-well filter plate (Millipore). Total ^125I-MCP-1 binding was assessed as follows: to each reaction of a total volume of 150 μl were added 5×10^5 cells, 0.15 nM […], and compound such that the final concentration ranged from 0 to 100 nM. The plate was incubated at room temperature for 30 minutes followed by three washes with RPMI-1640, 0.1% BSA, 0.4 M NaCl, 20 mM Hepes, pH 7.4 using a vacuum manifold filtration (Millipore). After washing, the plate was air-dried for 60 minutes at room temperature. This was followed by adding 25 μl of Microscint 20 into each well. The plate was sealed and counted on the Trilux for 1 minute. Non-specific binding was determined in the presence of 300 nM cold MCP-1 (PeproTech Inc.). Specific 1-MCP-1 was calculated as the difference between total and non-specific binding. All conditions were tested in duplicate.

hERG [3] = target: T2, hERG (Homo sapiens, UniProt Q12809); assay: hERG flux (Tl+ flux, FLIPR) in HEK293 cells; format: cell-based; conditions: HEK293 cells stably expressing hERG
T2 construct: expressed in transfected cells
T2 sequence (Q12809 whole entry): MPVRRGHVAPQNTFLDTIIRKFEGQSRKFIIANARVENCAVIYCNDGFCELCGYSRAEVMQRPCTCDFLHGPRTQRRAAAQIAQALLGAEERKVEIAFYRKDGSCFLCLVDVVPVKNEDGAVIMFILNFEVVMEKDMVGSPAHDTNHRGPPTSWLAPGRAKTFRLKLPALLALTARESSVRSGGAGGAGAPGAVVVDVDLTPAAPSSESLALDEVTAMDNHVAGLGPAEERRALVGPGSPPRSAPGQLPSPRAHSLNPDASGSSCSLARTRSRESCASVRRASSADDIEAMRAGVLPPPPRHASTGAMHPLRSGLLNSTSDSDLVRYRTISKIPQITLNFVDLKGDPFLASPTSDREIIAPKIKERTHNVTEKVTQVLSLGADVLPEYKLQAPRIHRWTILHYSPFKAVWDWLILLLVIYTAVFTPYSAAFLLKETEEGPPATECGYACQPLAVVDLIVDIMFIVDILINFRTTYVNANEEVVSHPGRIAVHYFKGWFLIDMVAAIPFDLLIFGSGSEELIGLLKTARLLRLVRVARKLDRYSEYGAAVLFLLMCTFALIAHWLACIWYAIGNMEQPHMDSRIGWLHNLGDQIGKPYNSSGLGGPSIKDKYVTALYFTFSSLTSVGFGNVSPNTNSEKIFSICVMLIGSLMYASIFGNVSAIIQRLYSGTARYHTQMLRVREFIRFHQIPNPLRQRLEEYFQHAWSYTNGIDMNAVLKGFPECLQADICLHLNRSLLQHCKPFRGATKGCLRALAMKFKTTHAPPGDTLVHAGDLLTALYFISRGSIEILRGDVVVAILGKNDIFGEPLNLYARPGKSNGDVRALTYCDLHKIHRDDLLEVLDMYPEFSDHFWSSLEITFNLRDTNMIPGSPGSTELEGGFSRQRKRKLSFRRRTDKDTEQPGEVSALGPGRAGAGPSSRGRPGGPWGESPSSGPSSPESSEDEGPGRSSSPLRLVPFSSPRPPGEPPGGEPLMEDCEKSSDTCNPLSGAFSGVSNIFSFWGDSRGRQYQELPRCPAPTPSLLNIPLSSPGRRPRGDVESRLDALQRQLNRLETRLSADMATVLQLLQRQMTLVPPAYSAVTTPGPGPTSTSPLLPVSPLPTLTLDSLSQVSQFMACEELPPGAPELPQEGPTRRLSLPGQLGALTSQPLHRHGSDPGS
Experimental: HEK293 cells stably-expressing hERG channels were grown (37° C., 5% CO2) in Dulbecco's Modified Eagle's Media supplemented with 10% Sigma fetal bovine serum, non-essential amino acids, 2 mM L-glutamine and 500 μg/ml G418, at incubator.
A 2 mM stock of BTC-AM dye (Molecular Probes, Eugene, Oreg.) was prepared in 100% DMSO and then added 1:1 to 10% (w/v) pluronic acid in DMSO on the day of assay. The dye was then diluted in hERG external EP buffer (140 mM NaCl, 4.0 mM KCl, 1.8 mM CaCl2, 1.0 mM MgCl2, 10 mM HEPES, pH 7.3 and 10 mM glucose; all buffer components obtained from Sigma Chemical). […] Cells are incubated at 21° C. for 45 minutes.
These compounds were then serially-diluted at a 1:2 ratio in DMSO in columns 1-10 and 11-20 of a 384-well plate. Assay-ready plates were generated by stamping 2.5 μl from the DMSO serially diluted plate, which was prepared on the Velocity 11 BioCel. Aqueous plates were created by adding 48 μl of EP buffer and then were diluted 30-45 minutes before the assay was read on the FLIPR. […] Final DMSO concentration in the assay is 1%. Assay-ready aqueous plates were prepared and diluted on a Cybio liquid handler.
Data collection proceeded every second for 48 seconds, and then continued every three seconds for an additional 2 minutes.
The dynamic range of the assay was determined from blanks and totals wells. The totals wells (columns 21 and 22) define maximal hERG activation for the plate (no test compound present), and the blanks wells (columns 23 and 24) define 100% hERG inhibition. […] Raw data points in each sample well were first corrected for cell/signal variation, negative control (blanks) background, and normalized to the positive controls (totals) using the online FLIPR software. Test compound concentration response curves for the hERG Tl^+ flux data were then fit using Excel Fit (ID Business Solutions Limited, Surrey, UK) with a single-site logistic equation, Y=A+((B−A)/1+((C/X)^D))) where A=maximal inhibition. Data were analyzed by fitting maximum amplitudes of change in fluorescence for Tl^+ flux for a given condition of test compound.

[4] = Parallel Artificial Membrane Permeability Assay (PAMPA); format: in vitro ADME; conditions: apical and basolateral pH 7.4
Experimental: All experiments are conducted in triplicate determinations.

hERG [5] = target: T2, hERG; assay: hERG patch clamp (whole-cell, HEK-293); format: cell-based; conditions: for inhibition at 10000 nM: pH 7.4, 10,000 nM; for inhibition at 30000 nM: pH 7.4, 30,000 nM
[6] = target: human cardiac sodium channel, SCN5A (Nav1.5) (Homo sapiens, UniProt Q14524); assay: Sodium channel patch clamp (whole-cell, HEK-293); format: cell-based; conditions: HEK-293 cells expressing human cardiac sodium channel SCN5A, 30,000 nM, read-out: Na+ channel patch clamp (% inhibition)
Chain of human cardiac sodium channel, SCN5A (Nav1.5) (Q14524 whole entry): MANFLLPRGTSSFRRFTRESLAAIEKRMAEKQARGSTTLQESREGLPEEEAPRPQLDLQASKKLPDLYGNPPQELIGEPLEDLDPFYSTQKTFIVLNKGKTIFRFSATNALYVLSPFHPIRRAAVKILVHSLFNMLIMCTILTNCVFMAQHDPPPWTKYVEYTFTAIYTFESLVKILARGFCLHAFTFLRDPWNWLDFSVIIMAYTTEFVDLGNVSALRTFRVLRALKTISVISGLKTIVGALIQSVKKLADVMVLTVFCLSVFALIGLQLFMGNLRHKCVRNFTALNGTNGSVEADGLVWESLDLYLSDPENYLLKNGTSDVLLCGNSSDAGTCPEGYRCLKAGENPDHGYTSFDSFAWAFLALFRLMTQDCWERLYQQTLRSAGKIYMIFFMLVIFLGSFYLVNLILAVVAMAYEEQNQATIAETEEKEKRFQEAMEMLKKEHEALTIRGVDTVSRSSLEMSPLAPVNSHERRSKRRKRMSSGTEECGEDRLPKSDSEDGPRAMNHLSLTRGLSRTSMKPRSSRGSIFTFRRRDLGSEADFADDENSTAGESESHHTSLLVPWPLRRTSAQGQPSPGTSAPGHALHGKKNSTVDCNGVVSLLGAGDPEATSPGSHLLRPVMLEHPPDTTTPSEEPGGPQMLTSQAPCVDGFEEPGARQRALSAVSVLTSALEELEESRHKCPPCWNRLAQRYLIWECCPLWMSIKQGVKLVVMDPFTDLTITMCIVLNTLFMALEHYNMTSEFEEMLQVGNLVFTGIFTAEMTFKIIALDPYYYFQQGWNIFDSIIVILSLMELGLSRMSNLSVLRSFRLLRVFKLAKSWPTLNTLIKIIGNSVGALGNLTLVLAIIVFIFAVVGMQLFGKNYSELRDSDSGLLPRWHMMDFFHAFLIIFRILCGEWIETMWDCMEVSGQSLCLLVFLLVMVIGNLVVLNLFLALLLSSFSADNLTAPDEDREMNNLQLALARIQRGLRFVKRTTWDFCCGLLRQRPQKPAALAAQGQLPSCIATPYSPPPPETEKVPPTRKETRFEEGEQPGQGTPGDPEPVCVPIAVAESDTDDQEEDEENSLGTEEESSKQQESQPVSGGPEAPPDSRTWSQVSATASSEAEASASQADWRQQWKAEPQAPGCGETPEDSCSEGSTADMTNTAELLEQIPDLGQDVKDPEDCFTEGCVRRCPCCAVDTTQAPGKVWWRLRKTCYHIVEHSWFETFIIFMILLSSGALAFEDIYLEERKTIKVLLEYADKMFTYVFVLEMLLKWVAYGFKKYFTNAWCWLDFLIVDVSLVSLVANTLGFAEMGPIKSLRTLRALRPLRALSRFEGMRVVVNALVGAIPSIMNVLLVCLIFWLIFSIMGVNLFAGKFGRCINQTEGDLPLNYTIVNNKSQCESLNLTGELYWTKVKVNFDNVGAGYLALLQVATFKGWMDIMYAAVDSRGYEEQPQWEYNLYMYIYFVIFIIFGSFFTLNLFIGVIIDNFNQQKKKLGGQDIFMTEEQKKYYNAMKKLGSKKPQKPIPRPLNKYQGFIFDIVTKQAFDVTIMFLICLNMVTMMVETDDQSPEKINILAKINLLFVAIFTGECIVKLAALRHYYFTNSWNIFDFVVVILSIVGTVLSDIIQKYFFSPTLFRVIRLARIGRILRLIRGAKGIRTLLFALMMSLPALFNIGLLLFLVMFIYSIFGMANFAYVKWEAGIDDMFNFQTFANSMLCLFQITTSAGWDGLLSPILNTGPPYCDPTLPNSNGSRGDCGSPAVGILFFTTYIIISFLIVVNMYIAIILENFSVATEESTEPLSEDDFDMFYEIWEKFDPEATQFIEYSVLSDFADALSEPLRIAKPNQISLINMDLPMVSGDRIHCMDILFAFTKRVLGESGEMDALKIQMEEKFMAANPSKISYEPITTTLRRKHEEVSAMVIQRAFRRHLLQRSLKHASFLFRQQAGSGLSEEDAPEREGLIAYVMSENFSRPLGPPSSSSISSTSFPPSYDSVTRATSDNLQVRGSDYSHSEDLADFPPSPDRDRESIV
Experimental: The compound was tested at a protein-free aqueous buffer. For determining steady state inhibition, sodium currents were elicited every 5 seconds using the following voltage protocol: cells were held at a potential of −90 mV and stepped to −20 mV for 60 ms. Effects were calculated by measuring inhibition of peak current during the test pulse to −20 mV. Rate-dependence of inhibition was assessed by stimulation at frequencies of 1 Hz and 4 Hz.

human CCR2 [7] = target: T1, human CCR2; assay: CCR2 chemotaxis (MCP-1-induced, THP-1 cells); format: cell-based; parameters: hPBMCs were isolated from human leukopak (Biological Specialty Inc.); endogenous in cells; host or cells: human peripheral blood mononuclear cells from leukopak (Biological Specialty Inc.)
Experimental: The human CCR2 chemotaxis assay was conducted with the human monocytic cell line, THP-1. THP-1 cells were first labeled with the fluorescent dye Calcein-AM in phenol red-free, BSA-free RPMI-1640 (pH 7.4) at 37° C. for 30 minutes with gentle mixing every 15 minutes. The labeled cells were then washed and re-suspended at 1×10^5/ml in chemotaxis buffer (phenol red-free RPMI-1640, 0.1% BSA, pH 7.4). The test compound was diluted in chemotaxis buffer such that the final assay concentration ranged from 0.01 nM to 1 μM. […] To perform the assay, an equal volume of test compound dilutions was mixed with an equal volume of labeled THP-1 cells (Mixture 1), and an equal volume of test compound dilutions was mixed with an equal volume of diluted MCP-1 ligand (Mixture 2). Both mixtures were incubated independently at 37° C. for 10 minutes followed by gentle mixing. MCP-1-induced chemotaxis was then measured in a chemotaxis plate (Becton Dickinson) by placing 50 μl of Mixture 1 in the top chamber and 225 μl of Mixture 2 in the bottom chamber. The plate was covered with a lid and incubated at 37° C. for 30 minutes. 30 minutes later, the plate was read on a Cytofluor. All conditions were tested in duplicate. […] The inhibition achieved by graded concentrations of test compound was calculated as a percentage of the compound-free MCP-1 control.

[8] = Single-dose pharmacokinetics in rats; format: in vivo; conditions: male, Sprague-Dawley, plasma, rat, dose per compound (mg/kg)
Experimental: (1500-2000×g) to obtain plasma. […] Plasma samples, obtained by centrifugation at 4° C.

[9] = Single-dose pharmacokinetics in monkeys; format: in vivo; conditions: male, cynomolgus monkey, plasma, dose per compound (mg/kg)
Description: (1500-2000×g) to obtain plasma.

[10] = metabolite examples, read-out: PBMC Binding IC50
[11] = figure in parentheses in the cell not copied (count of determinations), read-out: CCR2 Binding IC50

| Structure (SMILES) | IC50 (human CCR2 [1]) | IC50 (human CCR2 [2]; [10]) | IC50 (hERG [3]) | Papp at 4 h, 100 µM [4] | inhibition at 10000 nM (hERG [5]) | inhibition at 30000 nM (hERG [5]) | inhibition at 30000 nM [6] | IC50 (human CCR2 [2]; [11]) | IC50 (human CCR2 [7]) | other results |
| --- | --- | --- | --- | --- | --- | --- | --- | --- | --- | --- |
| CC(=O)N[C@@H]1C[C@H](N)CC[C@@H]1N1CC[C@H](Nc2ncnc3ccc(C(F)(F)F)cc23)C1=O [Example 4, N-((1R,2S,5R)-5-amino-2-((3S)-2-oxo-3-((6-(trifluoromethyl)-4-quinazolinyl)amino)-1-pyrrolidinyl)cyclohexyl)acetamide] | 4.22 ± 1.22 nM | 3.46 ± 1.1 nM |  |  |  |  |  |  |  |  |
| CC(=O)N[C@@H]1C[C@H](N(C)C(C)C)CC[C@@H]1N1CC[C@H](Nc2nc[n+]([O-])c3ccc(C(F)(F)F)cc23)C1=O [Example 5, N-((1R,2S,5R)-5-(isopropyl(methyl)amino)-2-((3S)-3-((1-oxido-6-(trifluoromethyl)-4-quinazolinyl)amino)-2-oxo-1-pyrrolidinyl)cyclohexyl)acetamide] | 21.3 nM | 27.5 ± 1.4 nM |  |  |  |  |  |  |  |  |
| CC(=O)N[C@@H]1C[C@H](NC(C)C)CC[C@@H]1N1CC[C@H](Nc2nc[n+]([O-])c3ccc(C(F)(F)F)cc23)C1=O [Example 6, N-((1R,2S,5R)-5-(isopropylamino)-2-((3S)-3-((1-oxido-6-(trifluoromethyl)-4-quinazolinyl)amino)-2-oxo-1-pyrrolidinyl)cyclohexyl)acetamide] | 139 nM |  |  |  |  |  |  |  |  |  |
| CC(C)N(C)[C@@H]1CC[C@H](N2CC[C@H](Nc3ncnc4ccc(C(F)(F)F)cc34)C2=O)[C@H](NC=O)C1 [Example 7, N-((1R,2S,5R)-5-(isopropyl(methyl)amino)-2-((S)-2-oxo-3-(6-(trifluoromethyl)quinazolin-4-ylamino)pyrrolidin-1-yl)cyclohexyl)formamide] |  |  | > 80000 nM | 326 ± 221 nm/s | 12% | 29% | 10% | 1.72 ± 0.54 nM | 2.85 nM |  |
| CC(=O)N[C@@H]1C[C@H](N(C)C(C)C)CC[C@@H]1N1CC[C@H](NC(=O)c2cccc(C(C)(C)C)n2)C1=O [Example 9, N-((3S)-1-((1S,2R,4R)-2-acetamido-4-(isopropyl(methyl)amino)cyclohexyl)-2-oxo-3-pyrrolidinyl)-6-tert-butyl-2-pyridinecarboxamide] |  |  | > 80000 nM | 266 nm/s | 26% | 41% | 6% | 1.69 ± 0.67 nM | 0.35 nM |  |
| CCC(=O)N[C@@H]1C[C@H](N)CC[C@@H]1N1CC[C@H](Nc2ncnc3ccc(C(F)(F)F)cc23)C1=O [Example 10, N-((1R,2S,5R)-5-amino-2-((3S)-2-oxo-3-((6-(trifluoromethyl)-4-quinazolinyl)amino)-1-pyrrolidinyl)cyclohexyl)propanamide] |  |  | > 80000 nM | 228 nm/s |  | 33% | 35% | 5.18 ± 1.98 nM | 1.6 ± 0.42 nM | clearance ([8]; IV): 2.7 L/h/kg; AUC ([8]; PO): 4230 nM·h; bioavailability ([8]; oral bioavailability): 57%; clearance ([9]; IV): 1.26 L/h/kg; AUC ([9]; PO): 1080 nM·h; bioavailability ([9]; oral bioavailability): 67% |
